Measured values taken from patent US20060079696A1, “Substituted compounds derived from N-(benzyl)phenylacetamide, preparation and uses” (GENFIT, priority 2004, published 2006).

What was measured:
hPPARα = target: T1, hPPARα (Homo sapiens, UniProt Q07869); experiment: Gal4-hPPARα chimera transactivation in COS-7 cells (luciferase); type: cell-based; details: induction factor standardised to an internal reference, read-out: % hGal4-PPAR transactivation (10 μM) alpha
T1 construct: fragments of DNA amplified by PCR corresponding to the DEF domains of the human PPARα, PPARγ PPARδ nuclear receptors; expressed in transfected cells; host or cells: COS-7 (monkey kidney fibroblast line)
T1 sequence (Q07869 239-466 limits assumed): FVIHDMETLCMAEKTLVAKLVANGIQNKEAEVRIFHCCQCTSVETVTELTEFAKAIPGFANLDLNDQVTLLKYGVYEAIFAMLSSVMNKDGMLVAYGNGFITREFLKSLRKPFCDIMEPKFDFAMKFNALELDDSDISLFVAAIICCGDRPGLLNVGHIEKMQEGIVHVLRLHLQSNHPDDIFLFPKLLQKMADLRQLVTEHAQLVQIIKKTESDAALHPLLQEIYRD
Experimental: (§1) The PPAR activation was evaluated in vitro on a monkey kidney fibroblast line (COS-7) by measuring the transcriptional activity of chimeras constituted of the DNA binding domain of the Gal4 transcription factor of yeast and of the binding domain to the ligand of the different PPARs. The compounds were tested at doses between 0.01 and 100 μM on Gal4-PPARα, γ, δ chimeras. The induction factor (ratio between the luminescence induced by the compound and the luminescence induced by the control) was measured for each condition: the higher this factor, the more the compound has PPAR-activating properties.
(§2) The COS-7 cells from ATCC were cultivated in a DMEM medium supplemented with 10% (vol/vol) of foetal calf serum, 100 U/ml penicillin (Gibco, Paisley, UK) and 2 mM L-Glutamine (Gibco, Paisley, UK). The cells were incubated at 37° C. in a humid atmosphere containing 5% CO2.
(§3) The Gal4(RE)_TkpGL3, pGal4-hPPARα, pGal4-hPPARγ, pGal4-hPPARδ and pGal4-φ plasmids have been described in the literature (Raspe, Madsen et al. 1999). The pGal4-hPPARα, pGal4-hPPARγ and pGal4-hPPARδ constructs were obtained by cloning in the pGal4-φ vector of fragments of DNA amplified by PCR corresponding to the DEF domains of the human PPARα, PPARγ PPARδ nuclear receptors.
(§4) COS-7 cells were plated in 96 wells plates (5×10^4 cells/well) and transfected, in the presence of 10% foetal calf serum and 150 ng DNA per well, with a pGal4-PPAR/Gal4(RE)_TkpGL3 ratio of 1/10. The cells were then incubated for 24 hours with the compounds to be tested, without serum. At the end of the experiment, the cells were lysed and the luciferase activities were determined by means of Steady Glow Luciferase (Promega) according to the supplier's recommendations.
(§5) The inventive compounds were tested at 10 μM on the 3 PPAR isoforms. The results obtained are detailed in table (1). The transactivation measured is expressed as a response ratio versus an internal reference for each of the isoforms.
(§6) The compounds were tested at 10 μM on the Gal4-PPARα, γ, δ chimeras. The induction factor, i.e. the ratio between the luminescence induced by the compound and the luminescence induced by the control, was measured for each condition. It was then standardised in comparison to an internal reference and the results were then expressed in percentages : the higher the activation percentage, the more the compound has PPAR-activating properties.

hPPARγ = target: T2, hPPARγ (Homo sapiens, UniProt P37231); experiment: Gal4-hPPARγ chimera transactivation in COS-7 cells (luciferase); type: cell-based; details: induction factor standardised to an internal reference, read-out: % hGal4-PPAR transactivation (10 μM) gamma
T2 construct: fragments of DNA amplified by PCR corresponding to the DEF domains of the human PPARα, PPARγ PPARδ nuclear receptors; expressed in transfected cells; host or cells: COS-7 (monkey kidney fibroblast line)
T2 sequence (P37231 238-503 limits assumed): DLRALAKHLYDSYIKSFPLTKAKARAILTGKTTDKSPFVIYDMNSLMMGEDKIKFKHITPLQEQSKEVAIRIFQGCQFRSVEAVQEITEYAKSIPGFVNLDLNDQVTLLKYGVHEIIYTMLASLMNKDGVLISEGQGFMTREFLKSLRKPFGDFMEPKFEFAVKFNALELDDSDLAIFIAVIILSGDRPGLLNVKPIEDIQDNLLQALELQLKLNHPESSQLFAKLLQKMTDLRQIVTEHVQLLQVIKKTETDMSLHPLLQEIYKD
Experimental: as §1, §2, §3, §4, §5, §6

hPPARα, hPPARγ, hPPARδ = experiment: Gal4-hPPAR α/γ/δ transactivation: isoform selectivity and dose dependence; type: cell-based, human; details: 10 μM
Experimental: as §1, §3, §4
The inventive compounds were tested at doses between 0.01 and 100 μM on the 3 PPAR isoforms. The results obtained are detailed in FIGURES (1a), (1b) and (1c): evolution of the transactivation levels according to the dose for the three PPAR sub-types (α, γ, and δ respectively).

hPPARδ = target: T3, hPPARδ (Homo sapiens, UniProt Q03181); experiment: Gal4-hPPARδ chimera transactivation in COS-7 cells (luciferase); type: cell-based; details: induction factor standardised to an internal reference, read-out: % hGal4-PPAR transactivation (10 μM) delta
T3 construct: fragments of DNA amplified by PCR corresponding to the DEF domains of the human PPARα, PPARγ PPARδ nuclear receptors; expressed in transfected cells; host or cells: COS-7 (monkey kidney fibroblast line)
T3 sequence (Q03181 211-439 limits assumed): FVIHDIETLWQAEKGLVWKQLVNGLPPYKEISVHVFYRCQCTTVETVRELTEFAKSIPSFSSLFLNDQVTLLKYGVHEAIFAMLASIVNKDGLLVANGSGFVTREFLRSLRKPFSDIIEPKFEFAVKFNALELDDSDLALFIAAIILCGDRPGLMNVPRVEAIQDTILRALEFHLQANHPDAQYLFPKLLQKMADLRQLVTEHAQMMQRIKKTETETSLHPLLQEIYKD
Experimental: as §1, §2, §3, §4, §5, §6

[1] = target: T4, ATP-dependent potassium channels (K+ATP) (Rattus norvegicus, UniProt Q09429); experiment: [3H]glibenclamide binding to ATP-dependent potassium channels of rat cerebral cortex; details: 1 h; 300 nM; specific displacement of [3H]glibenclamide 0.1 nM; read-out: KATP binding (300 nM)
T4 construct: the potassium channels derive from a rat's cerebral cortex; tissue CEREP; host or cells: rat cerebral cortex
Experimental: The results shown reflect the specific affinity of the inventive compounds on the ATP-dependent (K^+ATP) potassium channels. The specific binding measured corresponds to the difference between the total binding and the non-specific binding determined in the presence of an excess of non-marked reference ligand (glibenclamide 1 μM). The inventive compounds were tested at doses between 3 and 300 nM: the higher the percentage measured, the stronger the affinity of the compound for the ATP-dependent potassium channels.
The binding test was carried out at CEREP (Celle L'Evescault, France (86)) according to a protocol inspired by Angel et al. (Angel and Bidet 1991): the potassium channels derive from a rat's cerebral cortex and the reference compound is [^3H]glibenclamide at 0.1 nM. The protocol consists of incubation at 22° C. for one hour.

T4 sequence (Q09429 whole entry): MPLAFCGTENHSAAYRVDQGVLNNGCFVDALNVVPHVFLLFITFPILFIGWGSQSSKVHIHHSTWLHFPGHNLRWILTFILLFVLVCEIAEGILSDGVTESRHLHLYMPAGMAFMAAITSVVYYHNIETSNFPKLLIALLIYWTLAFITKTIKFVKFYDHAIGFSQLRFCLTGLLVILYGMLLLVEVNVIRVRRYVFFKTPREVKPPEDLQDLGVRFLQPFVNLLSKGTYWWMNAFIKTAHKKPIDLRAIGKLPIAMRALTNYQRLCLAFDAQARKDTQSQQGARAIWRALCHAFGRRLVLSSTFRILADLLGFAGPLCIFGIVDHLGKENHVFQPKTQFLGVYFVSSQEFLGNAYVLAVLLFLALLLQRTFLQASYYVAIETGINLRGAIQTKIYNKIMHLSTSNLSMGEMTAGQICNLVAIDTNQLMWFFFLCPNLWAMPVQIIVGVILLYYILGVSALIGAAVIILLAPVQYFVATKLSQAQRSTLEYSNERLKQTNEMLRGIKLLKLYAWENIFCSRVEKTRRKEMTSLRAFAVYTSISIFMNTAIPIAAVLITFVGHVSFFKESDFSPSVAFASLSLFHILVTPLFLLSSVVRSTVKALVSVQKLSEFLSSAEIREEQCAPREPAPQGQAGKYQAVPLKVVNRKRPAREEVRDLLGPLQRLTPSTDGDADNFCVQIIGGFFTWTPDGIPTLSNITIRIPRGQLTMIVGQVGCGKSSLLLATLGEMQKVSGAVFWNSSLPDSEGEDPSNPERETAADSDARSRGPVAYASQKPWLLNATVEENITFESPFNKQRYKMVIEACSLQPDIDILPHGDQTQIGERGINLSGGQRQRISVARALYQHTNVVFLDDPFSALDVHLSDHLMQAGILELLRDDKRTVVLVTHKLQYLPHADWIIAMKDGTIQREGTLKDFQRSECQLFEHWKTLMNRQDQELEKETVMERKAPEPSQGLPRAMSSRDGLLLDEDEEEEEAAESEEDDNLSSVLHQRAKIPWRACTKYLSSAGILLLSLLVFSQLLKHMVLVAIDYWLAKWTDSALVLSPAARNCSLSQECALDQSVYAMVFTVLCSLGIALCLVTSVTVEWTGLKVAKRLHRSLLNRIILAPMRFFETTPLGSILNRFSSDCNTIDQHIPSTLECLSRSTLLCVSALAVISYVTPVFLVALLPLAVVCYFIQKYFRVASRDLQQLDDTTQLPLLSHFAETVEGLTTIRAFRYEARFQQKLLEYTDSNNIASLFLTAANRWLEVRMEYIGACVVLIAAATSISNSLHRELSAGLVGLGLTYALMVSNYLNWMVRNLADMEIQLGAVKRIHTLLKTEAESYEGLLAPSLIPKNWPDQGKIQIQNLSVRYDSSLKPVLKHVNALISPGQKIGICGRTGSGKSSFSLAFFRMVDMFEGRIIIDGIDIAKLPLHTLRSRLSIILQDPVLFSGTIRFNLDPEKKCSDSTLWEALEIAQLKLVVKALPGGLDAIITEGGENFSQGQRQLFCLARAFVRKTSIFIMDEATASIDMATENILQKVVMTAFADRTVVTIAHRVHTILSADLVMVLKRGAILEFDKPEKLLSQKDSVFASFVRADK
T4 sequence (P70673 whole entry partner): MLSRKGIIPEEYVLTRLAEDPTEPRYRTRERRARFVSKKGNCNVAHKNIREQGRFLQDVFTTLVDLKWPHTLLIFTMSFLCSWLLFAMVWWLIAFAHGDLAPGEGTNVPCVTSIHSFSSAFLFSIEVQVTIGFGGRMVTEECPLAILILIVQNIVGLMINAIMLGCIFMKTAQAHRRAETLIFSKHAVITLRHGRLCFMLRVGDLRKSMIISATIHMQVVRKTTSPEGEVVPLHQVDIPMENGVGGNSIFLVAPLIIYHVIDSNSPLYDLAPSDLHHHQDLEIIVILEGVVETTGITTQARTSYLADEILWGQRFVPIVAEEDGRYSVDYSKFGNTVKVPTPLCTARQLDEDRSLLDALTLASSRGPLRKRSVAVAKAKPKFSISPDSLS

| activation at 10 µM (hPPARα) [%] | activation at 10 µM (hPPARγ) [%] | activation at 10 µM (hPPARδ) [%] | inhibition at 0.3 µM [1] [%] | SMILES | selectivity with respect to PPAR isoforms (hPPARα, hPPARγ, hPPARδ) |
| --- | --- | --- | --- | --- | --- |
| < 10 | 95 | < 10 |  | CC(C)(Oc1ccc(CC(=O)NC(CC2CCCCC2)c2ccccc2N2CCCCC2)cc1)C(=O)O (stereo not drawn) [Compound 19, 2-[4-[1-(2-cyclohexyl-1-(2-(1-piperidinyl)phenyl)ethyl)aminocarbonylmethyl]phenoxy]-2-methylpropanoic acid] | activates neither hPPARα nor hPPARδ |
| 46 | < 10 | < 10 | 49 | CCCCC(NC(=O)Cc1ccc(OC(C)(C)C(=O)NS(=O)(=O)C(F)(F)F)cc1)c1ccccc1N1CCCCC1 (stereo not drawn) [Compound 60, N-[trifluoromethylsulfonyl]-2-[4-[1-(1-(2-(1-piperidinyl)phenyl)pentyl)aminocarbonylmethyl]phenoxy]-2-methylpropanamide] | hPPARα selective |
| < 10 | 50 | < 10 | 90 | CCCC(NC(=O)Cc1ccc(OC(C)(C)C(=O)O)cc1)c1ccccc1N1CCCCC1 (stereo not drawn) [Compound 65, 2-[4-[1-(1-(2-(1-piperidinyl)phenyl)butyl)aminocarbonylmethyl]phenoxy]-2-methylpropanoic acid] |  |

Second part, the molecule before the results:

| SMILES | activation at 10 µM (hPPARα) [%] | activation at 10 µM (hPPARγ) [%] | activation at 10 µM (hPPARδ) [%] | inhibition at 0.3 µM [1] [%] | selectivity with respect to PPAR isoforms (hPPARα, hPPARγ, hPPARδ) |
| --- | --- | --- | --- | --- | --- |
| CCCCC(NC(=O)Cc1ccc(OC(C)(C)C(=O)O)cc1)c1ccccc1Sc1ccccc1 (stereo not drawn) [Compound 36, 2-[4-[1-(1-(2-(phenylthio)phenyl)pentyl)aminocarbonylmethyl]phenoxy]-2-methylpropanoic acid] | 54 | 73 | < 10 | 45 | activates hPPARα and hPPARγ, but not hPPARδ |
| CC(C)CC(NC(=O)Cc1ccc(OC(C)(C)C(=O)O)cc1)c1ccc(-c2ccccc2)cc1N1CCCCC1 (stereo not drawn) [Compound 39, 2-[4-[1-(3-methyl-1-(2-(1-piperidinyl)-4-(phenyl)phenyl)butyl)aminocarbonylmethyl]phenoxy]-2-methylpropanoic acid] | 16 | 29 | 24 |  | ligand of hPPARα, hPPARγ and hPPARδ |
| CCCCC(NC(=O)Cc1ccc(OC(C)(C)C(=O)O)cc1)c1ccc(-n2cccc2)cc1N1CCCCC1 (stereo not drawn) [Compound 49, 2-[4-[1-(1-(2-(1-piperidinyl)-4-(1H-pyrrolyl)phenyl)pentyl)aminocarbonylmethyl]phenoxy]-2-methylpropanoic acid] | < 10 | 87 | 57 |  | activates hPPARγ and hPPARδ, but not hPPARα |
| CC(C)CC(NC(=O)Cc1ccc(OC(C)(C)C(=O)NS(=O)(=O)c2ccccc2)cc1)c1ccccc1N1CCCCC1 (stereo not drawn) [Compound 64, N-[phenylsulfonyl]-2-[4-[1-(3-methyl-1-(2-(1-piperidinyl)phenyl)butyl)aminocarbonylmethyl]phenoxy]-2-methylpropanamide] | < 10 | 18 | < 10 | 57 |  |
